Tested on: patients with MDD and an inadequate response to an SSRI or SNRI
Assay: Massachusetts General Hospital Sexual Functioning Index (MGH-SFI), Study ACP-103-042
Type: in vivo, human
Conditions: for MGH-SFI 01: Interest in Sex, Change from Baseline to Week 5 Mean (SE) / MGH-SFI 01: Interest in Sex, Change from Baseline to Week 5 Median / MGH-SFI 01: Interest in Sex, Week 5 Mean (SE) / MGH-SFI 01: Interest in Sex, Week 5 Median / MGH-SFI 01: Interest in Sex, Effect Size (Cohen's d): subgroup >50 years
Excerpt: “Massachusetts General Hospital Sexual Functioning Index (MGH-SFI)” is described, for instance, in Labbate and Lare, 2001, Psychother Psychosom. 70(4):221-225. This is a patient facing questionnaire that quantifies sexual dysfunction into 5 functional domains (“interest in sex,” “sexual arousal,” “ability to achieve orgasm,” “ability to maintain erection” (males only), and “sexual satisfaction”). Patients rate each item using a 6-point scale ranging from 1 (good function) to 6 (poor function). High scores indicate poor sexual functioning. […] The determination of the subject's status and eligibility for randomization in Stage 2 was made in a double-blind manner. […] Sexual functioning was assessed using the Massachusetts General Hospital Sexual Functioning Index or MGH-SFI (Labbate and Lare, 2001, Psychother Psychosom. 70(4):221-225). This is a patient facing questionnaire that quantifies sexual dysfunction into 5 functional domains (“interest in sex,” “sexual arousal,” “ability to achieve orgasm,” “ability to maintain erection” [malesonly], and “sexual satisfaction”). Patients rate each item using a 6-point scale ranging from 1 (good function) to 6 (poor function). The time frame for this scale is the past month. This scale was administered at baseline and Week 5 in both stages of the study. High scores indicate poor sexual functioning. In ACP-103-042 the mean scores for MGH-SFI at Baseline was calculated over all 5 domains for males and the 4 domains for females. For MGH-SFI (follow-up version) at Study Weeks 5 and 10, the mean was calculated in the same way as MGH-SFI at Baseline. […] Tables 10-27 summarize the detailed data of MGH-SFI individual items of the overall study group (Tables 10-15), the subgroup of age of <=50 (Tables 16-21) and the subgroup of age of >50 (Table 21-26). In Tables 9-26, ANCOVA=analysis of covariance; OC=observed cases; LSM=least squares mean; CI=confidence interval; SD=standard deviation; SE=standard error. Stage 1: Baseline=Study Week 0, Week 5=Study Week 5; Stage 2: Baseline=Study Week 5, Week 5=Study Weeks 10. LSM from the stage-specific ANCOVA analysis with the change from baseline as the outcome, treatment group as a factor, and the corresponding Baseline value as a covariate. 2-sided p-value for treatment difference from the stage-specific ANCOVA analysis. An treatment effect size (Cohen's d) is calculated using the formula: Effect Size=Least Square mean difference between PIM and PBO/SD. The corresponding 95% confidence interval for an effect size is calculated based on the theoretical probability distribution of the effect size. […] Tables 10-15 and 28-38 summarize the detailed data of MGH-SFI individual items of the overall study group (Tables 10-15), the female subgroup (Tables 33-37) and the male subgroup (Table 38-43). An treatment effect size (Cohen's d) is calculated using the formula: Effect Size=Least Square mean difference between PIM and PBO/SD. The corresponding 95% confidence interval for an effect size is calculated based on the theoretical probability distribution of the effect size. In Tables 10-15 and 28-38, ANCOVA=analysis of covariance; OC=observed cases; LSM=least squares mean; CI=confidence interval; SD=standard deviation; SE=standard error. Stage 1: Baseline=Study Week 0, Week 5=Study Week 5; Stage 2: Baseline=Study Week 5, Week 5=Study Weeks 10. LSM from the stage-specific ANCOVA analysis with the change from baseline as the outcome, treatment group as a factor, and the corresponding Baseline value as a covariate. 2-sided p-value for treatment difference from the stage-specific ANCOVA analysis. An treatment effect size (Cohen's d) is calculated using the formula: Effect Size=Least Square mean difference between PIM and PBO/SD. The corresponding 95% confidence interval for an effect size is calculated based on the theoretical probability distribution of the effect size.

[1] = subgroup >50 years old, Stage 1, PIM 34 mg vs placebo
[2] = subgroup >50 years old, Stage 2, PIM 34 mg
[3] = subgroup >50 years old, Stage 2, PIM 34 mg vs placebo

CC(C)COc1ccc(CNC(=O)N(Cc2ccc(F)cc2)C2CCN(C)CC2)cc1 [pimavanserin, N-(4-Fluorophenylmethyl)-N-(1-methylpiperidin-4-yl)-N′-(4-(2-methylpropyloxy)phenylmethyl)carbamide]
MGH-SFI 04: (Men) Ability to Get and Maintain an Erection, Effect Size (Cohen's d) [1]: −0.568 | MGH-SFI 05: Overall Sexual Satisfaction, Effect Size (Cohen's d) [1]: 0.757 | MGH-SFI 06: Overall Improvement Since Last Medication Change, Effect Size (Cohen's d) [1]: 0.531 | MGH-SFI 02: Ability to Get Sexually Aroused or Excited, Change from Baseline to Week 5 Mean (SE) [2]: −0.4 (0.21) | MGH-SFI 02: Ability to Get Sexually Aroused or Excited, Change from Baseline to Week 5 Median [2]: 0.0 | MGH-SFI 02: Ability to Get Sexually Aroused or Excited, Week 5 Mean (SE) [2]: 4.4 (0.46) | MGH-SFI 02: Ability to Get Sexually Aroused or Excited, Week 5 Median [2]: 5.0 | MGH-SFI 03: Ability to Achieve Orgasm, Change from Baseline to Week 5 Mean (SE) [2]: −0.5 (0.27) | MGH-SFI 03: Ability to Achieve Orgasm, Change from Baseline to Week 5 Median [2]: 0.0 | MGH-SFI 03: Ability to Achieve Orgasm, Week 5 Mean (SE) [2]: 4.5 (0.54) | MGH-SFI 03: Ability to Achieve Orgasm, Week 5 Median [2]: 5.0 | MGH-SFI 04: (Men) Ability to Get and Maintain an Erection, Change from Baseline to Week 5 Mean (SE) [2]: −1.6 (0.51) | MGH-SFI 04: (Men) Ability to Get and Maintain an Erection, Change from Baseline to Week 5 Median [2]: −2.0 | MGH-SFI 04: (Men) Ability to Get and Maintain an Erection, Week 5 Mean (SE) [2]: 2.8 (0.92) | MGH-SFI 04: (Men) Ability to Get and Maintain an Erection, Week 5 Median [2]: 2.0 | MGH-SFI 05: Overall Sexual Satisfaction, Change from Baseline to Week 5 Mean (SE) [2]: −0.8 (0.39) | MGH-SFI 05: Overall Sexual Satisfaction, Change from Baseline to Week 5 Median [2]: 0.0 | MGH-SFI 05: Overall Sexual Satisfaction, Week 5 Mean (SE) [2]: 4.2 (0.58) | MGH-SFI 05: Overall Sexual Satisfaction, Week 5 Median [2]: 5.0 | MGH-SFI 06: Overall Improvement Since Last Medication Change, Week 5 Mean (SE) [2]: 3.5 (0.40) | MGH-SFI 06: Overall Improvement Since Last Medication Change, Week 5 Median [2]: 4.0 | MGH-SFI 02: Ability to Get Sexually Aroused or Excited, Effect Size (Cohen's d) [3]: −0.075 | MGH-SFI 03: Ability to Achieve Orgasm, Effect Size (Cohen's d) [3]: 0.169 | MGH-SFI 04: (Men) Ability to Get and Maintain an Erection, Effect Size (Cohen's d) [3]: 1.174 | MGH-SFI 05: Overall Sexual Satisfaction, Effect Size (Cohen's d) [3]: 0.555 | MGH-SFI 06: Overall Improvement Since Last Medication Change, Effect Size (Cohen's d) [3]: 0.406 | MGH-SFI 01: Interest in Sex, Change from Baseline to Week 5 Mean (SE) (Stage 1, PIM 34 mg): −1.0 (0.24) | MGH-SFI 01: Interest in Sex, Change from Baseline to Week 5 Median (Stage 1, PIM 34 mg): −1.0 | MGH-SFI 01: Interest in Sex, Week 5 Mean (SE) (Stage 1, PIM 34 mg): 3.9 (0.32) | MGH-SFI 01: Interest in Sex, Week 5 Median (Stage 1, PIM 34 mg): 4.0 | MGH-SFI 01: Interest in Sex, Effect Size (Cohen's d) (Stage 1, PIM 34 mg vs placebo): 0.649 | MGH-SFI 01: Interest in Sex, Change from Baseline to Week 5 Mean (SE) (Stage 2, PIM 34 mg): −0.6 (0.24) | MGH-SFI 01: Interest in Sex, Change from Baseline to Week 5 Median (Stage 2, PIM 34 mg): 0.0 | MGH-SFI 01: Interest in Sex, Week 5 Mean (SE) (Stage 2, PIM 34 mg): 4.4 (0.45) | MGH-SFI 01: Interest in Sex, Week 5 Median (Stage 2, PIM 34 mg): 5.0 | MGH-SFI 01: Interest in Sex, Effect Size (Cohen's d) (Stage 2, PIM 34 mg vs placebo): 0.468

Reference: patent US20220016101A1 (ACADIA Pharmaceuticals Inc., priority 2018, published 2022)
